Reference: patent US20240156800A1, “EP300 DEGRADER AND USES THEREOF IN NEUROBLASTOMA” (DANA-FARBER CANCER INSTITUTE, INC., priority 2021, published 2024)
“Also recorded” adds a separate entry of the source. Where two headings read alike, the source gives them in different places.

Key:
[1] = Pharmacokinetic analysis after a single intraperitoneal dose in CD1 mice; format: in vivo, mouse; details: 10 mg/Kg single IP dose, murine serum
Experimental: (§1) For toxicity studies, four female CD1 mice (Charles River Laboratories) were injected intraperitoneally (IP) with single doses of 10 mg/Kg (R,S)-JQAD1 solubilized in 10% hydroxypropyl β-cyclodextrin (Sigma-Aldrich®) in sterile water. Following injection, blood concentration of (R,S)-JQAD1 was measured by serial measurements of animal serum at time points out to 24 h, by liquid chromatography with tandem mass spectrometry (LC-MS/MS) analysis. Pharmacokinetics were performed at ChemPartner in Shanghai, China, using LC-MS/MS method and pharmacokinetics parameters (Tmax, Cmax, T1/2, AUC, etc.) calculated with WinNonlin® V 6.2 statistics software (Pharsight Corporation) using a noncompartmental model. For maximally tolerated dose (MTD) testing, six female CD1 mice were treated with daily IP doses of (R,S)-JQAD1 at 10, 20, or 40 mg/kg. Animals were monitored for animal weight, grooming and behavior daily without noted effects. For MTD testing in humanized CRBN knockin (Balb/c CRBN^ILE391VAL) (Jackson Laboratories), 6 mice per treatment group were treated with either vehicle control or (R,S)-JQAD1 at 40 mg/kg/day by IP injection. Animal weights, behavior and grooming were monitored daily, for a total of 21 days. At day 14, three mice per treatment group were sacrificed and tissues fixed for immunohistochemistry. Blood samples were obtained by retro-orbital puncture and blood analyzed at the Small Animal Imaging Facility at Beth Israel Deaconess Medical Center (Boston, MA), on a Hemavet® 9500FS (Drew Scientific) for blood counts, creatinine, AST, ALT, ALP, GGTP, and BUN measurements.

[2] = Toxicity study in Balb/c Crbn ILE391VAL humanized knockin mice; format: in vivo
Experimental: as §1, with “For MTD testing in humanized CRBN knockin (Balb/c CRBN^ILE391VAL) (Jackson Laboratories), 6 mice per treatment group were treated with either vehicle control or (R,S)-JQAD1 at 40 mg/kg/day by IP injection.” left out

[3] = 40 mg/Kg IP daily, after 14 days, p NS versus vehicle

C[C@H](N(Cc1ccc(F)cc1)C(=O)CN1C(=O)O[C@@]2(CCc3cc(NC(=O)CCCCCCCCCCCNc4ccc5c(c4)C(=O)N(C4CCC(=O)NC4=O)C5=O)ccc32)C1=O)C(F)(F)F (stereo partly drawn) [JQAD1, 12-((2-(2,6-dioxopiperidin-3-yl)-1,3-dioxoisoindolin-5-yl)amino)-N-((R)-3′-(2-((4-fluorobenzyl)((S)-1,1,1-trifluoropropan-2-yl)amino)-2-oxoethyl)-2′,4′-dioxo-2,3-dihydrospiro[indene-1,5′-oxazolidin]-5-yl)dodecanamide]
half-life [1]: 13.3 (+/−3.37) h
Cmax ([1]; female, mouse): 7 µM
half-life ([1]; female, mouse, read-out: half-life (converted)): 13.3 h
tolerability ([2]; 40 mg/Kg IP daily for 21 days, measurements after 14 days): well tolerated, with no effects on grooming, behavior, weight, peripheral blood counts, liver function tests or creatinine measurements
tissue pathology (hematoxylin and eosin) ([2]; 40 mg/Kg IP daily, 14 days, blinded pathologist): no gross changes in tissue architecture or immune infiltrate; also recorded: no histologic or biochemical evidence of toxicity in the liver
ALP [2, 3]: 51
ALT [2, 3]: 54
AST [2, 3]: 37
Albumin [2, 3]: 3.2
Basophils [2, 3]: 0.02 K/μL
Creatinine [2, 3]: 0.17
Eosinophils [2, 3]: 0.10
GGTP [2, 3]: 5
Hematocrit [2, 3]: 41.2%
Hemoglobin [2, 3]: 13.35
Lymphocytes [2, 3]: 1.80
Monocytes [2, 3]: 0.35 K/μL
Neutrophils [2, 3]: 1.2
Platelet [2, 3]: 528 K/μL
WBC [2, 3]: 3.46 K/μL
toxicity (blood counts, liver and kidney function tests, weight, grooming) ([2]; twice daily 40 mg/Kg IP for 14 days): no toxicity was observed
